Results: US9278940B2, “Cyclic amines as bromodomain inhibitors” (Zenith Epigenetics Corp., priority 2012, dated 2016)
Counter-ions that a name gives are not always drawn.

Tested on: hIL-6 mRNA
Assay: Inhibition of hIL-6 mRNA transcription in LPS-stimulated U937 macrophages
Assay type: cell-based, human
Design: key: Active: Compounds with an IC50 value less than 30 μM are deemed to be active.; Not Active: Compounds with an IC50 value less than 30 μM are deemed to be active
Details: U937 cells differentiated with PMA, 1 h pretreatment, LPS 3 h
How it was run: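 U937 cells differentiated to macrophages with 60 ng/mL PMA for 3 days, pretreated 1 h with compound, then stimulated with 1 ug/mL E. coli LPS for 3 h at 37° C. IL-6 mRNA measured by one-step qRT-PCR, Ct normalized to internal control, expressed as fold induction relative to control.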

- IL-6 activity (IC50 < 30 μM): Active
SMILES: COc1cc(OC)c2c(=O)[nH]c(-c3cccc(N4CCN(C(C)C)CC4)n3)nc2c1 [Example 17, 2-(6-(4-Isopropylpiperazin-1-yl)pyridin-2-yl)-5,7-dimethoxyquinazolin-4(3H)-one Hydrochloride]
